Patent US20240262795A1, “PYRAZINE COMPOUNDS AS INHIBITORS OF FLT3” (Biomea Fusion, Inc., priority 2021, published 2024)

Experiments:
Format in all cases: cell-based, human
MOLM-13 = assay: Proliferation inhibition, CellTiter-Glo, MOLM-13; settings: Homo sapiens, 96 h; MOLM-13 cells, IC50 (4 days), CellTiter-Glo; read-out: MOLM-13 IC50
Method in brief: (§1)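 About 10,000 cells per well in RPMI-1640 with 10% FBS. Compounds added 2 h after seeding at eight concentrations in duplicate (0.2% DMSO as 100% proliferation), then incubated ~96 h at 37° C, 5% CO2. ATP measured by CellTiter-Glo luminescence; IC50 from four-parameter logistic fit.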

MV-4-11 = assay: Proliferation inhibition, CellTiter-Glo, MV-4-11; settings: Homo sapiens, MV4-11, 96 h; MV-4:11 cells, IC50 (4 days), CellTiter-Glo; read-out: MV-4:11 IC50
Method in brief: as §1

K-562 = assay: Proliferation inhibition, CellTiter-Glo, K-562; settings: Homo sapiens, K562, 96 h; K-562 cells, IC50 (4 days), CellTiter-Glo; read-out: K-562 IC50
Method in brief: as §1

IC50 (MOLM-13) [nM]	IC50 (MV-4-11) [nM]	IC50 (K-562) [nM]	Compound
1 to 10	< 1	> 500	[2H]C([2H])([2H])N(C/C=C/C(=O)N(C)[C@@H](C)C(=O)NCCc1cccc(Nc2nc(N(C)C(C)C)c(C)nc2C(N)=O)c1)C([2H])([2H])[2H] [Compound 247, (S,E)-3-((3-(2-(2-(4-(bis(methyl-d3)amino)-N-methylbut-2-enamido)propanamido)ethyl)phenyl)amino)-5-(isopropyl(methyl)amino)-6-methylpyrazine-2-carboxamide]
1 to 10	1 to 10	> 500	Cc1nc(C(N)=O)c(Nc2cccc(CCNC(=O)[C@H](C)N(C)C(=O)/C=C/CN3CCC3)c2)nc1C1CC1 [Compound 242, (S,E)-3-((3-(2-(2-(4-(azetidin-1-yl)-N-methylbut-2-enamido)propanamido)ethyl)phenyl)amino)-5-cyclopropyl-6-methylpyrazine-2-carboxamide]
10 to 100	1 to 10	> 500	C=CC(=O)N(C)[C@@H](C)C(=O)NCCc1cccc(Nc2nc(C3CC3)c(CC)nc2C(N)=O)c1 [Compound 208, 5-cyclopropyl-6-ethyl-3-[3-[2-[[(2S)-2-[methyl(prop-2-enoyl)amino]propanoyl]amino]ethyl]anilino]pyrazine-2-carboxamide]
1 to 10	1 to 10	> 500	CCc1nc(C(N)=O)c(Nc2cccc(CCNC(=O)[C@H](C)N(C)C(=O)/C=C/CN(C)C)c2)nc1C [Compound 142A, (S,E)-3-((3-(2-(2-(4-(dimethylamino)-N-methylbut-2-enamido)propanamido)ethyl)phenyl)amino)-6-ethyl-5-methylpyrazine-2-carboxamide]
10 to 100	1 to 10	> 500	CCc1nc(C(N)=O)c(Nc2cccc(CCNC(=O)C3(N(C)C(=O)/C=C/CN(C)C)CC3)c2)nc1C [Compound 223, 3-[3-[2-[[1-[[(E)-4-(dimethylamino)but-2-enoyl]-methyl-amino]cyclopropanecarbonyl]amino]ethyl]anilino]-6-ethyl-5-methyl-pyrazine-2-carboxamide]
10 to 100	1 to 10	> 500	CC#CC(=O)N(C)[C@@H](C)C(=O)NCCc1cccc(Nc2nc(C3CC3)c(CC)nc2C(N)=O)c1 [Compound 209, 3-[3-[2-[[(2S)-2-[but-2-ynoyl(methyl)amino]propanoyl]amino]ethyl]anilino]-5-cyclopropyl-6-ethyl-pyrazine-2-carboxamide]
10 to 100	10 to 100	> 500	C=CC(=O)N(C)[C@@H](C)C(=O)NCCc1cccc(Nc2nc(C)c(CC)nc2C(N)=O)c1 [Compound 216, 6-ethyl-5-methyl-3-[3-[2-[[(2S)-2-[methyl(prop-2-enoyl)amino]propanoyl]amino]ethyl]anilino]pyrazine-2-carboxamide]
